Assays:
Assay in all cases: relative viability (nuclei count vs DMSO), 5 days (fraction); higher = more cells survive
Crizotinib + Luminespib = compound: C[C@@H](Oc1cc(-c2cnn(C3CCNCC3)c2)cnc1N)c1c(Cl)ccc(F)c1Cl [Crizotinib] + CCNC(=O)c1noc(-c2cc(C(C)C)c(O)cc2O)c1-c1ccc(CN2CCOCC2)cc1 [Luminespib] (partner 0.01 µM)
Method in brief: (§1)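 Lung cancer cell lines, seeded in 1536-well plates, were treated the following day by pin tool with a single drug or with five library-drug doses (not always all listed) in √10 steps on top of a fixed anchor-drug dose. Cells were fixed and nuclei stained in one step after 5 days, and nuclei were counted. Relative viability is the nuclei count for treated wells divided by that for vehicle wells, reported as medians of duplicate plates.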

Olaparib + Bortezomib = compound: O=C(c1cc(Cc2n[nH]c(=O)c3ccccc23)ccc1F)N1CCN(C(=O)C2CC2)CC1 [Olaparib] + CC(C)C[C@H](NC(=O)[C@H](Cc1ccccc1)NC(=O)c1cnccn1)B(O)O [Bortezomib] (partner 0.002 µM)
Method in brief: as §1

Carfilzomib + Crizotinib = compound: CC(C)C[C@H](NC(=O)[C@H](CCc1ccccc1)NC(=O)CN1CCOCC1)C(=O)N[C@@H](Cc1ccccc1)C(=O)N[C@@H](CC(C)C)C(=O)[C@@]1(C)CO1 [Carfilzomib] + C[C@@H](Oc1cc(-c2cnn(C3CCNCC3)c2)cnc1N)c1c(Cl)ccc(F)c1Cl [Crizotinib] (partner 1 µM)
Method in brief: as §1

Olaparib + Tozasertib = compound: O=C(c1cc(Cc2n[nH]c(=O)c3ccccc23)ccc1F)N1CCN(C(=O)C2CC2)CC1 [Olaparib] + Cc1cc(Nc2cc(N3CCN(C)CC3)nc(Sc3ccc(NC(=O)C4CC4)cc3)n2)n[nH]1 [Tozasertib] (partner 0.1 µM)
Method in brief: as §1

Row | Cell Line | relative viability (Crizotinib + Luminespib; first compound 0.01 µM) | relative viability (Crizotinib + Luminespib; first compound 0.03162 µM) | relative viability (Crizotinib + Luminespib; first compound 0.3162 µM) | relative viability (Olaparib + Bortezomib; first compound 0.08 µM) | relative viability (Olaparib + Bortezomib; first compound 0.253 µM) | relative viability (Olaparib + Bortezomib; first compound 2.53 µM) | relative viability (Olaparib + Bortezomib; first compound 8 µM) | relative viability (Carfilzomib + Crizotinib; first compound 0.001 µM) | relative viability (Carfilzomib + Crizotinib; first compound 0.003162 µM) | relative viability (Carfilzomib + Crizotinib; first compound 0.01 µM) | relative viability (Carfilzomib + Crizotinib; first compound 0.03162 µM) | relative viability (Carfilzomib + Crizotinib; first compound 0.1 µM) | relative viability (Olaparib + Tozasertib; first compound 0.08 µM) | relative viability (Olaparib + Tozasertib; first compound 0.253 µM) | relative viability (Olaparib + Tozasertib; first compound 2.53 µM) | relative viability (Olaparib + Tozasertib; first compound 8 µM) | relative viability (Crizotinib + Luminespib; first compound 0.1 µM) | relative viability (Crizotinib + Luminespib; first compound 1 µM)
1 | 201T | 1.01 | 1.07 | 1.06 | 1.19 | 1.03 | 1.11 | 1.07 | 1.02 | 1.1 | 1.04 | 1.06 | 0.91 | 1.05 | 0.91 | 0.919 | 0.879 | – | –
2 | A549 | – | – | – | – | – | – | – | 0.802 | 0.776 | 0.743 | 0.182 | 0.0494 | – | – | – | – | – | –
3 | A-427 | 0.91 | 0.904 | – | 1.03 | 0.96 | 0.877 | 0.673 | 0.837 | 0.996 | 0.862 | 0.212 | 0.122 | 0.196 | 0.209 | 0.188 | 0.163 | 0.946 | 0.963
4 | ABC-1 | – | 0.865 | 0.496 | 0.308 | 0.332 | 0.323 | 0.33 | 1.15 | 0.805 | 0.385 | 0.177 | 0.172 | 0.22 | 0.149 | 0.198 | 0.182 | 0.628 | –
5 | BEN | 0.504 | 0.301 | 0.198 | 0.651 | 0.632 | 0.881 | 0.829 | 0.898 | 1.18 | 0.923 | 0.757 | 0.311 | 0.53 | 0.48 | 0.529 | 0.48 | 0.38 | 0.549
6 | CAL-12T | 0.297 | 0.339 | – | 1.16 | 0.842 | 1.04 | 1.03 | – | 0.814 | 0.72 | 0.18 | 0.0912 | 0.345 | 0.259 | 0.281 | 0.235 | 0.232 | 0.201
7 | COR-L23 | 0.655 | 0.665 | 0.775 | 1.06 | 0.862 | 0.92 | 0.474 | 0.71 | 0.828 | 0.731 | 0.0647 | 0.0659 | 0.22 | 0.192 | 0.176 | 0.12 | 0.656 | 0.687
8 | COR-L 105 | 0.686 | 0.859 | 0.804 | 0.936 | 0.85 | 0.464 | 0.426 | 0.84 | 0.743 | 0.608 | 0.262 | 0.17 | 0.368 | 0.351 | 0.319 | 0.275 | 0.712 | 0.769
9 | Calu-6 | – | – | – | 1.13 | 0.959 | 0.796 | 0.777 | 0.747 | 0.834 | 0.811 | 0.334 | 0.0815 | – | – | – | – | – | –
10 | ChaGo-K-1 | 0.438 | 0.546 | 0.526 | 1.27 | 0.96 | 1.02 | 0.845 | – | 1.2 | 1.18 | 0.634 | 0.303 | 0.286 | 0.198 | 0.232 | 0.197 | 0.517 | 0.747
11 | EBC-1 | – | – | – | 0.654 | 0.541 | 0.523 | 0.472 | 0.212 | 0.18 | 0.183 | 0.131 | 0.111 | – | – | – | – | – | –
12 | EKVX | 0.953 | – | 0.939 | 1.42 | 0.987 | 0.995 | 0.994 | 0.936 | 0.819 | 0.941 | 0.887 | 0.348 | 0.441 | 0.352 | 0.388 | 0.445 | 0.947 | 0.865
13 | EMC-BAC-2 | 1.12 | 1.25 | 1.16 | 1.09 | 1.04 | 1.07 | 0.967 | 0.779 | 0.896 | 0.928 | 0.661 | 0.229 | 0.284 | 0.296 | 0.279 | 0.262 | 1.09 | 1.22
14 | EPLC-272H | 0.236 | 0.343 | 0.262 | 1.1 | 0.819 | 0.965 | 0.848 | 0.441 | 1.07 | 0.811 | 0.11 | 0.0759 | 0.193 | 0.234 | 0.312 | 0.172 | 0.197 | 0.577
15 | H3255 | 0.928 | 0.971 | 0.743 | 0.935 | 0.728 | 0.703 | 0.728 | 0.962 | 1.04 | 1.07 | 0.761 | 0.186 | 0.704 | 0.602 | 0.82 | 0.496 | 0.831 | –
16 | HARA | 0.819 | 0.77 | – | 1.25 | 1.04 | 1.06 | 0.769 | 1.05 | 1.06 | 1.12 | 0.0563 | 0.0555 | 0.14 | 0.0884 | 0.0969 | 0.0782 | 0.708 | 0.682
17 | HCC-15 | 0.382 | 0.409 | – | 1.18 | 0.984 | 1.03 | 0.9 | 0.765 | 0.85 | 0.844 | 0.545 | 0.185 | 0.479 | 0.341 | 0.406 | 0.29 | 0.443 | 0.334
18 | HCC-44 | 1.03 | 0.99 | 1.05 | 0.915 | 0.873 | 0.952 | 0.893 | 0.811 | 0.824 | 0.866 | 0.614 | 0.149 | 1.27 | 0.857 | 0.871 | 1.06 | 0.988 | 1.06
19 | HCC-78 | – | – | – | 0.489 | 0.545 | 0.496 | 0.537 | 0.323 | 0.383 | 0.351 | 0.345 | 0.144 | 0.399 | 1.61 | 0.41 | 0.486 | – | –
20 | HCC-366 | – | – | – | 1.06 | 0.959 | 0.913 | 0.384 | 0.396 | 0.518 | 0.674 | 0.299 | 0.016 | 0.11 | 0.118 | 0.0926 | 0.0619 | – | –
